Data: patent US7759331B2, “Pyridine-containing macroheterococylic compounds as kinase inhibitors” (Janssen Pharmaceutica NV, priority 2006, dated 2010)
Values joined by “and” are separate entries in the source; they are usually repeats but may differ in a detail not shown here. Equal entries are not always repeated.

Tests used:
PKA(b) = PKA(b) (Bos taurus, UniProt P00517); assay: Protein kinase selectivity panel; format: biochemical, bovine; conditions: 1.0 μM compound, 10 μM ATP
Description: Protein kinase selectivity assays were performed as described in the scientific literature (Davies, S. P., et al., Biochem. J. 2000, 351, 95-105). Briefly, protein kinases were assayed for their ability to phosphorylate the appropriate peptide/protein substrates in the presence of 1.0 μM compound. Assays were done using 10 μM ATP and were linear with respect to time. The protein kinase selectivity assays were performed by Upstate Cell Signaling Solutions using Upstate's KinaseProfiler™ Selectivity Screening Service.

GSK3α(h) = GSK3α(h) (Homo sapiens, UniProt P49840); assay: Protein kinase selectivity panel; format: biochemical; conditions: 1.0 μM compound, 10 μM ATP
Outline: (§1)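 Substrate phosphorylation by each kinase is measured in the presence of 1.0 μM compound, using 10 μM ATP under time-linear conditions.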

GSK3β(h) = GSK3β(h) (Homo sapiens, UniProt P49841); assay: Glycogen Synthase Kinase-3 Assay; format: biochemical; conditions: assay run three times for each compound; each run's value listed
Description: Compounds were tested for the ability to inhibit GSK-3β protein. Briefly, in a final reaction volume of 25 μL, GSK-3β (h) (5-10 mU) was incubated with 8 mM MOPS pH 7.0, 0.2 mM EDTA, 20 μM […](p)EDEEE (phospho GS2 peptide), 10 mM Mg Acetate and [γ-^33P-ATP] (specific activity approx. 500 cpm/pmol, concentration as required). The reaction was initiated by the addition of the MgATP mix. After incubation for 40 minutes at room temperature, the reaction was stopped by the addition of 5 μL of a 3% phosphoric acid solution. 10 μL of the reaction was then spotted onto a P30 filtermat and washed three times for 5 minutes in 50 mM phosphoric acid and once in methanol prior to drying and scintillation counting.
The GSK-3β assay was run three times for each compound.

TrkB(h) = TrkB(h) (Homo sapiens, UniProt Q16620); assay: Protein kinase selectivity panel; format: biochemical; conditions: 1.0 μM compound, 10 μM ATP
Outline: as §1

Chain of GSK3β(h) (P49841 whole entry): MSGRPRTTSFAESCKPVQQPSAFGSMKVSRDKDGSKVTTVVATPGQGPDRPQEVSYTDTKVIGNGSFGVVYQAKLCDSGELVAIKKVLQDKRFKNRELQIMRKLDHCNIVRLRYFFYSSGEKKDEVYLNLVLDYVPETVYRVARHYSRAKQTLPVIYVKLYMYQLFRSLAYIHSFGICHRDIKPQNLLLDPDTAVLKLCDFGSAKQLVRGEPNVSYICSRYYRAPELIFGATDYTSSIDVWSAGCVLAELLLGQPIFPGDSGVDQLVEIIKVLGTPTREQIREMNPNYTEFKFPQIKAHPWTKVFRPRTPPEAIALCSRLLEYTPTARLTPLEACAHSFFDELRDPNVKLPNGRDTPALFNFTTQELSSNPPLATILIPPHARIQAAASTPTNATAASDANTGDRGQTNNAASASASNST
Chain of TrkB(h) (Q16620 32-822): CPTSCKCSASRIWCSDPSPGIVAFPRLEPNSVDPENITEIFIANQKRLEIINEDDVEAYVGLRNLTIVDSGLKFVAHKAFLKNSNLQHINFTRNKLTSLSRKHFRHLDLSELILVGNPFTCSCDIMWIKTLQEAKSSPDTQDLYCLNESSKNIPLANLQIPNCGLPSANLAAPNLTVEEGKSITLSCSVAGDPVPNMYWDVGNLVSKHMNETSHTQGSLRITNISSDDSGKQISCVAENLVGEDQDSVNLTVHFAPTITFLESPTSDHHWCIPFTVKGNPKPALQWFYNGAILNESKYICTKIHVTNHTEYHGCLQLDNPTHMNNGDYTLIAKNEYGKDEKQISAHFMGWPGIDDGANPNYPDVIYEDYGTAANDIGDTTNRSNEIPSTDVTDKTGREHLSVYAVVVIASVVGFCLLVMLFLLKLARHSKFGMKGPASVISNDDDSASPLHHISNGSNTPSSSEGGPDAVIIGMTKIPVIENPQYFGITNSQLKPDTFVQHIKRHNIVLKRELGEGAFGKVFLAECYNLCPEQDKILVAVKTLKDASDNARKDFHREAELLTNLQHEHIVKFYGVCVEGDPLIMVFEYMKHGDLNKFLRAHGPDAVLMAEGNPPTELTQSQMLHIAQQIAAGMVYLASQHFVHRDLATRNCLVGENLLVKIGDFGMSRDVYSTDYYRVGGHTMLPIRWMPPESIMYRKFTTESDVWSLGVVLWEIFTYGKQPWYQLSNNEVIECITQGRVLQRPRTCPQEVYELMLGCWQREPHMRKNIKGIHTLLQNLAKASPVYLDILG
Chain of GSK3α(h) (P49840 whole entry): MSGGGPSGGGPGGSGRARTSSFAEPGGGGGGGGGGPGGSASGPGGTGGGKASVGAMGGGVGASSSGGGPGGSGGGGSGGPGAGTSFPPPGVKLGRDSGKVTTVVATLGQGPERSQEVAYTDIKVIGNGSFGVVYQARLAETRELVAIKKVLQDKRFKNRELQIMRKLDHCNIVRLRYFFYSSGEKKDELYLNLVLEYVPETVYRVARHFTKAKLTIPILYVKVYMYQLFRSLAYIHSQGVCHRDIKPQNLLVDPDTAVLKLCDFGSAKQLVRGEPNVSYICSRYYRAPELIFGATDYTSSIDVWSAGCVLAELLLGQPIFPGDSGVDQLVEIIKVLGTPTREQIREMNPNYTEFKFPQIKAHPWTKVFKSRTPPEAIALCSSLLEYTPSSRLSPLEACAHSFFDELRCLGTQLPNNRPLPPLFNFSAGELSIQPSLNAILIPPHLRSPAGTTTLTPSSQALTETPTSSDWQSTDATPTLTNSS

Structure (SMILES) | Activity at Protein Kinase Assays (% of control), PKA(b) (PKA(b)) | Activity at Protein Kinase Assays (% of control), GSK3α(h) (GSK3α(h)) | IC50 (GSK3β(h)) | Activity at Protein Kinase Assays (% of control), TrkB(h) (TrkB(h))
CN(C)c1nc2ccc1CCCCn1cc(c3ccccc31)C1=C(C(=O)NC1=O)c1cn(c3ccccc13)CCC2 [Cpd 1, 31-(dimethylamino)-5,15,25,32-tetraazaheptacyclo[28.2.2.1^5,12.1^18,25.0^6,11.0^13,17.0^19,24]hexatriaconta-1(32),6,8,10,12(36),13(17),18(35),19,21,23,30,33-dodecaene-14,16-dione] | 99 % of control | 4 % of control | – | –
CN(C)c1cc2cc(n1)CCCn1cc(c3ccccc31)C1=C(C(=O)NC1=O)c1cn(c3ccccc13)CCC2 [Cpd 2, 20-(dimethylamino)-4,14,19,26-tetraazaheptacyclo[24.6.1.1^7,14.1^18,22.0^2,6.0^8,13.0^27,32]pentatriaconta-1(33),2(6),7(35),8,10,12,18(34),19,21,27,29,31-dodecaene-3,5-dione] | 107 % of control | 3 % of control | 0.0014 µM and 0.0082 µM and 0.0123 µM | 98 % of control
O=C1NC(=O)C2=C1c1cn(c3ccccc13)CCCc1cc(nc(N3CCCC3)c1)CCCn1cc2c2ccccc21 [Cpd 6, 20-pyrrolidin-1-yl-4,14,19,26-tetraazaheptacyclo[24.6.1.1^7,14.1^18,22.0^2,6.0^8,13.0^27,32]pentatriaconta-1(33),2(6),7(35),8,10,12,18(34),19,21,27,29,31-dodecaene-3,5-dione] | 89 % of control | 4 % of control | 0.027 µM and 0.0029 µM and 0.0038 µM | 105 % of control
O=C1NC(=O)C2=C1c1cn(c3ccccc13)CCCc1ccc(c(N3CCCC3)n1)CCCn1cc2c2ccccc21 [Cpd 7, 31-pyrrolidin-1-yl-5,15,25,30-tetraazaheptacyclo[27.2.2.1^5,12.1^18,25.0^6,11.0^13,17.0^19,24]pentatriaconta-1(31),6,8,10,12(35),13(17),18(34),19,21,23,29,32-dodecaene-14,16-dione] | 105 % of control | 9 % of control | 0.058 µM and 0.0129 µM and 0.0193 µM | 106 % of control
